The text below walks through data of patent US6242449A, “3-benzoylindole derivatives and drugs containing the same” (Zeria Pharmaceutical Co., Ltd., priority 1997, dated 2001).

In assay [1] the target is Testosterone 5α-reductase. The assay can be described thus: Testosterone 5α-reductase inhibitory action, nuclear fraction of rat prostates. It is filed as biochemical, Wistar rat. The settings on record: rat prostate nuclear fraction, [4-^14 C]-testosterone, NADPH, pH 7.0, 60 minutes at 37° C. The procedure: Male Wistar rats (age: 9-10 weeks old) were anesthetized with ether. The abdomen of each rat was median-cut to thereby remove the prostate. The isolated prostates were weighed and homogenized in 3 tissue volumes of 50 mM Tris-HCl buffer (pH 7.2) containing 0.25 M sucrose. The homogenates were filtered with gauze and centrifuged at 3,000 rpm for 10 minutes. The pellets were resuspended in a buffer as described above and the resultant suspension was used as a nuclear fraction.
The nuclear fraction of the prostates (0.1 ml), 5 mM NADPH (0.1 ml), and a test drug solution (DMSO solution containing the test drug; 0.01 ml) were added to 50 mM Tris-HCl buffer (pH 7.0; 0.78 ml). Reaction was initiated by addition of 150 μM [4-^14 C]-testosterone (0.01 ml) to the resultant solution, and the reaction mixture was incubated for 60 minutes at 37° C. After incubation, reaction was stopped by addition of ethyl acetate (4 ml), and simultaneously, the reaction mixture was subjected to extraction. The extract (3 ml) was brought to dryness through evaporation with nitrogen gas. Ethyl acetate (40 μl) was added thereto, and a 10 μl portion was applied to a silica gel thin layer plate for development with a solvent mixture of ethyl acetate and cyclohexane (1:1). After development, the plate was subjected to autoradiography, and spots attributed to testosterone, dihydrotestosterone, and other metabolites were collected by scraping. Radioactivity of the spots was counted in a liquid scintillation counter. From the total radioactivity and the radioactivity of 5α-metabolites, reaction ratio was obtained. IC50 of the compound, which represents the inhibitory activity of the test compound, was calculated from the reaction ratio of the control solvent and the reaction ratio obtained when the compound was added.

For assay [2], the target named is T1, α1 -adrenergic receptor (Oryctolagus cuniculus, UniProt O02824).
T1 construct: Transverse smooth muscle strips were prepared; from tissue; host or cells: rabbit prostate, transverse smooth muscle strips
T1 sequence (O02824 1-466): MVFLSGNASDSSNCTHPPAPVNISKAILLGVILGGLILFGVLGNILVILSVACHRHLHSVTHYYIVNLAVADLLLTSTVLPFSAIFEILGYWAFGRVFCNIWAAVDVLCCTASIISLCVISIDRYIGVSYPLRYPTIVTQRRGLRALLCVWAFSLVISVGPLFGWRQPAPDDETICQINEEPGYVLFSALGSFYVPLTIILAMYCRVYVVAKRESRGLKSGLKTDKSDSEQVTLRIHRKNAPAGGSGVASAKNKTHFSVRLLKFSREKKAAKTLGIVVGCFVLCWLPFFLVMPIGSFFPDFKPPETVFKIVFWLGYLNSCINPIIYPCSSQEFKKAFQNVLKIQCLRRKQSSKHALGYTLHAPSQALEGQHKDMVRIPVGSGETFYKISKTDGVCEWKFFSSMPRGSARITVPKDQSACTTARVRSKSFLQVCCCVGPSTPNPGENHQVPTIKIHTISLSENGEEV
In words: α1-Adrenergic receptor blocking action, rabbit prostate smooth muscle strips (phenylephrine contraction). Format: cell-based. The procedure:
(§1) Rabbits were sacrificed by exsanguination, and in each rabbit the urethra and prostate were isolated from the lower urinary tract system. Transverse smooth muscle strips were prepared. Each strip was suspended in a 37° C. Krebs-solution-containing organ bath which had been bubbled with 95% O2 and 5% CO2. Isometric contraction under a resting tension of 1 g was recorded with an isometric transducer (TB-651T, Nihon Koden) on a thermal pen-type recorder (RECTI HORIZ 8K, Nihon Denki San'ei).
(§2) The strip was allowed to stand for equilibration for 60 minutes, and contractions were elicited by a certain concentration of phenylephrine (10^-5 M). The organ bath was washed with a nutrient liquid. Thereafter, the above procedure was repeated at 60-minute intervals until constant contraction responses were obtained. Subsequently, dose-response curves were obtained by administration of phenylephrine in an accumulative manner (10^-7 to 3×10^-4 M). After the strips were washed and then rested for 60 minutes, the strips were treated with a test drug solution (i.e., DMSO solution containing the test drug; 10^-7 to 10^-5 M) for 30 minutes, to thereby obtain dose-response curves for phenylephrine.
(§3) The composition of the nutrient solution was as follows.
(§4) In all cases, 10^-5 M propranolol (β-adrenaline antagonist) was administered 10 minutes before administration of the drug.
(§5) The efficacy of each test drug in terms of α1 -adrenergic receptor blocking action was assessed from calculation of pA2 (inverse of logarithm of the mole concentration of antagonist which requires, in the presence of an antagonist, twice the concentration of an agonist that provides an effect equal to that obtained in the absence of an antagonist).

For assay [3], the target named is T1, α1 -adrenergic receptor. In words: α1-Adrenergic receptor blocking action, rabbit urethra smooth muscle strips (phenylephrine contraction). Format: cell-based. The procedure:
as §1, §2, §3, §4, §5

The mark [4] stands for this setting: rabbit prostate strips, phenylephrine 10^-7 to 3×10^-4 M, test drug 30 minutes, 10^-5 M propranolol present, read-out: Prostate (pA2) (converted).
The mark [5] stands for this setting: rabbit urethra strips, phenylephrine 10^-7 to 3×10^-4 M, test drug 30 minutes, 10^-5 M propranolol present, read-out: Urethra (pA2) (converted).

Structures can show the parent of a compound that is named as a salt.

A word on the IC50: it is the point on the concentration scale where inhibition reaches its midpoint. Read a high IC50 as weaker potency. As to `CCc1ccc(CNc2ccc(C(=O)c3cn(CCCC(=O)O)c4ccccc34)cc2OCCCN2CCN(c3ccccc3OC)CC2)cc1` [Example 1, 4-{3-{4-(4-Ethylphenyl)methylamino-3-{3-[4-(2-methoxyphenyl)piperazin-1-yl]propoxy}benzoyl}indol-1-yl}butanoic acid hydrochloride], in assay [1], the IC50 was 0.7 nM. In addition, the Kb in assay [2] is 224 nM; in assay [3], 302 nM.

As for `COc1ccccc1N1CCN(CCCOc2cc(C(=O)c3cn(CCCC(=O)O)c4ccccc34)ccc2NCc2ccccc2)CC1` [Example 5], the Kb in assay [2] (setting [4]) was 53.7 nM; in assay [3] (setting [5]), 174 nM.

Consider `COc1ccccc1N1CCN(CCCOc2cc(C(=O)c3cn(CCCC(=O)O)c4ccccc34)ccc2NCc2ccc(C)cc2)CC1` [Example 7], for which, in assay [1], it took 0.86 nM to reach half-maximal inhibition (IC50). For the same compound, the Kb in assay [2] (setting [4]) was 95.5 nM; in assay [3] (setting [5]), 316 nM.

Consider `CCOc1ccccc1N1CCN(CCCOc2cc(C(=O)c3cn(CCCC(=O)O)c4ccccc34)ccc2NCc2ccc(C)cc2)CC1` [Example 8, 4-{3-{4-[(4-Methylphenyl)methylamino]-3-{3-[4-(2-ethoxyphenyl)piperazin-1-yl]propoxy}benzoyl}indol-1-yl}butanoic acid], for which the concentration for half-maximal inhibition (IC50) in assay [1] stood at 1 nM. This lies in the single-digit nanomolar range.

In assay [1], `CCOc1ccccc1N1CCN(CCCOc2cc(C(=O)c3cn(CCCC(=O)O)c4ccccc34)ccc2NCc2ccc(CC)cc2)CC1` [Example 10, 4-{3-{3-{3-[4-(2-Ethoxyphenyl)piperazin-1-yl]propoxy}-4-[(4-ethylphenyl)methylamino]benzoyl}indol-1-yl}butanoic acid] came in with an IC50 of 0.47 nM. This IC50 is about 2.1-fold lower than that of the compound before.
